Where a name gives a salt, the structure may show the parent alone.
Assays:
hNav 1.7 = hNav 1.7 (Homo sapiens (Human), UniProt Q15858); test: Electrophysiological evaluation, automated patch clamp IonWorks Quattro (Population Patch Clamp mode); type: cell-based; conditions: HEK293A cells stably expressing hNav 1.7/β1/β2; response to second depolarization pulse, pre-pulse potential set to V1/2; read-out: hNav1.7 IC50
[1] = system: mice and rats affected by thermal hyperalgesia; test: Thermal hyperalgesia assay; type: in vivo; conditions: oral administration, constant dose, against the vehicle treatment group; latency to escape behaviors after thermal stimulation of hind paw;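 also: measurement times set by the study director and not disclosed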

Chain of hNav 1.7 (Q15858 whole entry): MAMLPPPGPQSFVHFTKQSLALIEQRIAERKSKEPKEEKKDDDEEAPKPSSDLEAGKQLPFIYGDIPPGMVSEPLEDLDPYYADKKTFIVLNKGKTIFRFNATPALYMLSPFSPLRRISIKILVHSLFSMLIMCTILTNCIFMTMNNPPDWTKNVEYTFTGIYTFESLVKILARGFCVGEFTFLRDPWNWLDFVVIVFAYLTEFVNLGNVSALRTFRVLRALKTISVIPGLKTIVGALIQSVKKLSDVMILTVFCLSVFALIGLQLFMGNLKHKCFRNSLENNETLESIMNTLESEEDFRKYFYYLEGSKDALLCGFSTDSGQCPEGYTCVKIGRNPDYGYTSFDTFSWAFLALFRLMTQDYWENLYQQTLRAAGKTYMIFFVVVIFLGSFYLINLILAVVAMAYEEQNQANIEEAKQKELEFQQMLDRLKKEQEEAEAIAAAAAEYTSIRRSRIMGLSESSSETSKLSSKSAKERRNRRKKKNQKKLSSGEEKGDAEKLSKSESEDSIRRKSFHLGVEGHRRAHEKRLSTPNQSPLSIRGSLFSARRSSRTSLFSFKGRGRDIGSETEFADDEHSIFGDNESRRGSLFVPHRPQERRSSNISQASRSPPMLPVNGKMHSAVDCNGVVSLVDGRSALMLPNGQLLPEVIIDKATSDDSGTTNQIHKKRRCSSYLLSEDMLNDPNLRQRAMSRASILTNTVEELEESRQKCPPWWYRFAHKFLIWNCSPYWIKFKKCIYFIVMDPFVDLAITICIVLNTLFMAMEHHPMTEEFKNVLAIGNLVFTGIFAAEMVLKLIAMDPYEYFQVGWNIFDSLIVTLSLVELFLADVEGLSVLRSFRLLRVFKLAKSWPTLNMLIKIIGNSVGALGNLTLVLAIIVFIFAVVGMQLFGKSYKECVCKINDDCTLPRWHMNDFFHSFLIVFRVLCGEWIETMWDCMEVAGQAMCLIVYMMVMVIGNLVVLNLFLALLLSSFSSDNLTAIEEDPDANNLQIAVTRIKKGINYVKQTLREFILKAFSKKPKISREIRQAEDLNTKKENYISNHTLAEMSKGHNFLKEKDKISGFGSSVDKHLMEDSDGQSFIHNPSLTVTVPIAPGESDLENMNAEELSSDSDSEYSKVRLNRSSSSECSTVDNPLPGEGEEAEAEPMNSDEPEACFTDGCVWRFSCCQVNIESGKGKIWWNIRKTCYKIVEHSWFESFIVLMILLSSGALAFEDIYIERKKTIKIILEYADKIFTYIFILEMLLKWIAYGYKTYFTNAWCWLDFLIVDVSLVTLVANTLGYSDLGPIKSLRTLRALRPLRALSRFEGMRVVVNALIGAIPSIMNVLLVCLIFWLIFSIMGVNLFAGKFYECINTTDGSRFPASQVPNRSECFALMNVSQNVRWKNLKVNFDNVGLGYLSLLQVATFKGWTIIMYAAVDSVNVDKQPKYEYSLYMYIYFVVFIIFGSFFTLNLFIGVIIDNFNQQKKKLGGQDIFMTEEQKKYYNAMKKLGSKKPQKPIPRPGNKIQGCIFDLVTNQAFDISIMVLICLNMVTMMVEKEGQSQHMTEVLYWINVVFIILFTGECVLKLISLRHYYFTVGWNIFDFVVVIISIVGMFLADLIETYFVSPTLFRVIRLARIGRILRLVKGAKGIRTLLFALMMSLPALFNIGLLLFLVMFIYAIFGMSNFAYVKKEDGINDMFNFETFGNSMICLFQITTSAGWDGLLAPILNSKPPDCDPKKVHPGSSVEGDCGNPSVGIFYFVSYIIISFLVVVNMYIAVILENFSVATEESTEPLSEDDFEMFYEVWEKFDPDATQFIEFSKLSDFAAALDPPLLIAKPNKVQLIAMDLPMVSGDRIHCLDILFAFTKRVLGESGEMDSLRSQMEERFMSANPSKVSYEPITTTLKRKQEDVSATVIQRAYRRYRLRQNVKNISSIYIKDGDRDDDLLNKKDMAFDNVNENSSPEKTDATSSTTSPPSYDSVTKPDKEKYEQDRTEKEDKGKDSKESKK
Chain of hNav 1.7 (Q07699 19-218 partner): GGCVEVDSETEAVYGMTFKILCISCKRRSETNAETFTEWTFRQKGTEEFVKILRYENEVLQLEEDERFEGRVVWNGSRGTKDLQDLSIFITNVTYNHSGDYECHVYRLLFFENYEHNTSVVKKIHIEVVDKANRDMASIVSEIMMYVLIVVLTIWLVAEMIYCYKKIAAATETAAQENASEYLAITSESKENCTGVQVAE
Chain of hNav 1.7 (O60939 30-215 partner): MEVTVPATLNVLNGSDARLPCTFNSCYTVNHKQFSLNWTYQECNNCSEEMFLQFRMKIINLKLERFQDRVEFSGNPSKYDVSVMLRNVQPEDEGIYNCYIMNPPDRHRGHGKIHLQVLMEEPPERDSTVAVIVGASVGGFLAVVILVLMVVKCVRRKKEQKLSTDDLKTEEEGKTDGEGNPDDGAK

| Compound | IC50 (hNav 1.7) [nM] | Ratio of improving pain score (%) [1] |
| --- | --- | --- |
| O=S(=O)(Nc1ccncn1)c1cc(F)c(O[C@H]2CCCC[C@@H]2c2cn[nH]c2)cc1F (relative stereo) [Example 33, 2,5-Difluoro-4-{[(1S*,2R*)-2-(1H-pyrazol-4-yl)cyclohexyl]oxy}-N-(pyrimidin-4-yl)benzenesulfonamide] | 300 | A (“A” when the rate was 61 to 100%) |
| CCn1nccc1[C@H]1CCCC[C@@H]1Oc1cc(F)c(S(=O)(=O)Nc2ccncn2)cc1F (relative stereo) [Example 28, 4-{[(1S*,2R*)-2-(1-Ethyl-1H-pyrazol-5-yl)cyclohexyl]oxy}-2,5-difluoro-N-(pyrimidin-4-yl)benzenesulfonamide] | 46 | C (“C” when the rate was 0 to 30%) |
| Cc1cc(S(=O)(=O)Nc2ccncn2)c(F)cc1O[C@H]1CCC[C@@H]1c1ccn[nH]1 (relative stereo) [Example 138, 2-Fluoro-5-methyl-4-{[(1S*,2R*)-2-(1H-pyrazol-5-yl)cyclopentyl]oxy}-N-(pyrimidin-4-yl)benzenesulfonamide] | 24 | B (“B” when the rate was 31 to 60%) |
| O=S(=O)(Nc1ccncn1)c1cc(F)c(O[C@H]2CC(F)(F)CC[C@@H]2c2cn[nH]c2)cc1F (relative stereo) [Example 103, 4-{[(1S*,2R*)-5,5-Difluoro-2-(1H-pyrazol-4-yl)cyclohexyl]oxy}-2,5-difluoro-N-(pyrimidin-4-yl)benzenesulfonamide] | 320 | B (“B” when the rate was 31 to 60%) |
| CCn1nccc1[C@H]1CCC[C@@H]1Oc1cc(F)c(S(=O)(=O)Nc2ccncn2)cc1F (relative stereo) [Example 37, 4-{[(1S*,2R*)-2-(1-Ethyl-1H-pyrazol-5-yl)cyclopentyl]oxy}-2,5-difluoro-N-(pyrimidin-4-yl)benzenesulfonamide] | 210 | C (“C” when the rate was 0 to 30%) |
| Cn1nccc1[C@H]1CCCC[C@@H]1Oc1ccc(S(=O)(=O)Nc2ccncn2)c(F)c1Cl (relative stereo) [Example 79, 3-Chloro-2-fluoro-4-{[(1S*,2R*)-2-(1-methyl-1H-pyrazol-5-yl)cyclohexyl]oxy}-N-(pyrimidin-4-yl)benzenesulfonamide] | 70 | C (“C” when the rate was 0 to 30%) |
| Cn1nccc1[C@H]1CCC[C@@H]1Oc1cc(F)c(S(=O)(=O)Nc2ccncn2)cc1C#N (relative stereo) [Example 62, 5-Cyano-2-fluoro-4-{[(1S*,2R*)-2-(1-methyl-1H-pyrazol-5-yl)cyclopentyl]oxy}-N-(pyrimidin-4-yl)benzenesulfonamide] | 120 | B (“B” when the rate was 31 to 60%) |
| [2H]c1nccc(NS(=O)(=O)c2ccc(O[C@H]3CCC[C@@H]3c3ccnn3CC)c(F)c2F)n1 (relative stereo) [Example 95, 4-{[(1S*,2R*)-2-(1-Ethyl-1H-pyrazol-5-yl)cyclopentyl]oxy}-2,3-difluoro-N-(2-^2H) (pyrimidin-4-yl)benzenesulfonamide] | 170 | C (“C” when the rate was 0 to 30%) |
| Cc1cc(S(=O)(=O)Nc2ccncn2)c(F)cc1O[C@H]1CC(F)(F)CC[C@@H]1c1ccnn1C [Example 137, 4-{[(1S,2R)-5,5-Difluoro-2-(1-methyl-1H-pyrazol-5-yl)cyclohexyl]oxy}-2-fluoro-5-methyl-N-(pyrimidin-4-yl)benzenesulfonamide] | 30 | A (“A” when the rate was 61 to 100%) |
| Nc1n[nH]cc1[C@H]1CCCC[C@@H]1Oc1ccc(S(=O)(=O)Nc2ccncn2)c(F)c1Cl (relative stereo) [Example 91, 4-{[(1S*,2R*)-2-(3-Amino-1H-pyrazol-4-yl)cyclohexyl]oxy}-3-chloro-2-fluoro-N-(pyrimidin-4-yl)benzenesulfonamide] | 170 | A (“A” when the rate was 61 to 100%) |
| Cn1nccc1[C@H]1CC(F)(F)C[C@@H]1Oc1cc(F)c(S(=O)(=O)Nc2ccncn2)c(F)c1 (relative stereo) [Example 135, 4-{[(1S*,2R*)-4,4-Difluoro-2-(1-methyl-1H-pyrazol-5-yl)cyclopentyl]oxy}-2,6-difluoro-N-(pyrimidin-4-yl)benzenesulfonamide] | 51 | B (“B” when the rate was 31 to 60%) |
| Cn1nccc1[C@H]1CCCCC[C@@H]1Oc1ccc(S(=O)(=O)Nc2ccncn2)cc1C#N (relative stereo) [Example 55, 3-Cyano-4-{[(1S*,2R*)-2-(1-methyl-1H-pyrazol-5-yl)cycloheptyl]oxy}-N-(pyrimidin-4-yl)benzenesulfonamide] | 39 | C (“C” when the rate was 0 to 30%) |
| O=S(=O)(Nc1ccncn1)c1ccc(O[C@H]2CCCC[C@@H]2c2cn[nH]c2)cc1F (relative stereo) [Example 108, 2-Fluoro-4-{[(1S*,2R*)-2-(1H-pyrazol-4-yl)cyclohexyl]oxy}-N-(pyrimidin-4-yl)benzenesulfonamide] | 1700 | A (“A” when the rate was 61 to 100%) |
| Cn1nccc1[C@H]1CCCC[C@@H]1Oc1ccc(S(=O)(=O)Nc2ccncn2)cc1C#N (relative stereo) [Example 56, 3-Cyano-4-{[(1S*,2R*)-2-(1-methyl-1H-pyrazol-5-yl)cyclohexyl]oxy}-N-(pyrimidin-4-yl)benzenesulfonamide] | 250 | B (“B” when the rate was 31 to 60%) |
| Nc1n[nH]cc1[C@H]1CCCC[C@@H]1Oc1cc(F)c(S(=O)(=O)Nc2ccncn2)cc1Cl (relative stereo) [Example 71, 4-{[(1S*,2R*)-2-(3-Amino-1H-pyrazol-4-yl)cyclohexyl]oxy}-5-chloro-2-fluoro-N-(pyrimidin-4-yl)benzenesulfonamide] | 150 | A (“A” when the rate was 61 to 100%) |
| O=S(=O)(Nc1ccncn1)c1c(F)cc(O[C@H]2CCCC[C@@H]2c2cn[nH]c2)cc1F (relative stereo) [Example 94, 2,6-Difluoro-4-{[(1S*,2R*)-2-(1H-pyrazol-4-yl)cyclohexyl]oxy}-N-(pyrimidin-4-yl)benzenesulfonamide] | 120 | A (“A” when the rate was 61 to 100%) |
| CCn1nccc1[C@H]1CCCC[C@@H]1Oc1ccc(S(=O)(=O)Nc2ccncn2)c(F)c1 (relative stereo) [Example 45, 4-{[(1S*,2R*)-2-(1-Ethyl-1H-pyrazol-5-yl)cyclohexyl]oxy}-2-fluoro-N-(pyrimidin-4-yl)benzenesulfonamide] | 190 | C (“C” when the rate was 0 to 30%) |
| Cn1nccc1[C@H]1C[C@H](O)CC[C@@H]1Oc1cc(F)c(S(=O)(=O)Nc2ccncn2)cc1Cl (relative stereo) [Example 161, 5-Chloro-2-fluoro-4-{[(1S*,2R*,4R*)-4-hydroxy-2-(1-methyl-1H-pyrazol-5-yl)cyclohexyl]oxy}-N-(pyrimidin-4-yl)benzenesulfonamide] | 130 | – |
| Cn1nccc1[C@H]1CC[C@@H](O)C[C@@H]1Oc1cc(F)c(S(=O)(=O)Nc2ccncn2)cc1Cl (relative stereo) [Example 160, 5-Chloro-2-fluoro-4-{[(1S*,2R*,5R*)-5-hydroxy-2-(1-methyl-1H-pyrazol-5-yl)cyclohexyl]oxy}-N-(pyrimidin-4-yl)benzenesulfonamide] | 560 | – |
| Cn1nccc1[C@H]1CC[C@H](O)C[C@@H]1Oc1cc(F)c(S(=O)(=O)Nc2ccncn2)cc1Cl (relative stereo) [Example 163, 5-Chloro-2-fluoro-4-{[(1S*,2R*,5S*)-5-hydroxy-2-(1-methyl-1H-pyrazol-5-yl)cyclohexyl]oxy}-N-(pyrimidin-4-yl)benzenesulfonamide] | 190 | – |
| Cn1nncc1[C@H]1CCCC[C@@H]1Oc1cc(F)c(S(=O)(=O)Nc2ccncn2)cc1F (relative stereo) [Example 92, 2,5-Difluoro-4-{[(1S*,2R*)-2-(1-methyl-1H-1,2,3-triazol-5-yl)cyclohexyl]oxy}-N-(pyrimidin-4-yl)benzenesulfonamide] | 1000 | – |
| O=S(=O)(Nc1ccncn1)c1c(F)cc(O[C@@H]2CCCC[C@H]2c2cn[nH]c2)cc1F [Example 169, 2,6-Difluoro-4-{[(1R,2S)-2-(1H-pyrazol-4-yl)cyclohexyl]oxy}-N-(pyrimidin-4-yl)benzenesulfonamide] | > 10000 | – |
| Cc1cc(S(=O)(=O)Nc2ccncn2)c(F)cc1O[C@@H]1CCC[C@H]1c1ccn[nH]1 [Example 149, 2-Fluoro-5-methyl-4-{[(1R,2S)-2-(1H-pyrazol-5-yl)cyclopentyl]oxy}-N-(pyrimidin-4-yl)benzenesulfonamide] | 32000 | – |
| Nc1cc([C@H]2CCC[C@@H]2Oc2cc(F)c(S(=O)(=O)Nc3ccncn3)cc2F)ccn1 (relative stereo) [Example 36, 4-{[(1S*,2R*)-2-(2-Aminopyridin-4-yl)cyclopentyl]oxy}-2,5-difluoro-N-(pyrimidin-4-yl)benzenesulfonamide] | 500 | – |
| Cn1nccc1[C@H]1CC(F)(F)CC[C@@H]1Oc1ccc(S(=O)(=O)Nc2ccncn2)c(F)c1 (relative stereo) [Example 130, 4-{[(1S*,2R*)-4,4-Difluoro-2-(1-methyl-1H-pyrazol-5-yl)cyclohexyl]oxy}-2-fluoro-N-(pyrimidin-4-yl)benzenesulfonamide] | 880 | – |
| Cn1nccc1[C@H]1CCC[C@@H]1Oc1cc(F)c(S(=O)(=O)Nc2cscn2)cc1Cl (relative stereo) [Example 11, 5-Chloro-2-fluoro-4-{[(1S*,2R*)-2-(1-methyl-1H-pyrazol-5-yl)cyclopentyl]oxy}-N-(1,3-thiazol-4-yl)benzenesulfonamide Na salt] | 10 | – |
| Cn1nccc1[C@H]1CCC[C@@H]1Oc1ccc(S(=O)(=O)Nc2ccncn2)c(F)c1 [Example 124, 2-Fluoro-4-{[(1S,2R)-2-(1-methyl-1H-pyrazol-5-yl)cyclopentyl]oxy}-N-(pyrimidin-4-yl)benzenesulfonamide] | 2400 | – |

Reference: patent US9493448B2, “Cycloalkane derivatives” (Daiichi Sankyo Company, Limited, priority 2012, dated 2016)
